Results published in the NIST ThermoML archive (doi:10.1007/s10765-013-1527-7).

Test: xn = mol fraction of the nth substance listed
Settings: 303 K, 101 kPa, Liquid; for speed of sound: Linear variable-path acoustic interferometer; for mass density: Pycnometric method

CC(C)=O [acetone] + Cc1ccccc1
speed of sound [m/s]
Settings | x1 = 0.135 | x1 = 0.27 | x1 = 0.331 | x1 = 0.456 | x1 = 0.51 | x1 = 0.605 | x1 = 0.745 | x1 = 0.831 | x1 = 0.937
Frequency=1 MHz | 946 | – | – | – | – | – | – | – | –
Frequency=3 MHz | 1040 | 1032 | 1020 | 1000 | 981 | 965 | 943 | – | 1028
Frequency=5 MHz | 1150 | 1130 | 1102 | 1080 | 1040 | 1010 | 1000 | 1150 | 1230

Settings | mass density [kg/m3]
x1 = 0.135 | 850
x1 = 0.27 | 840
x1 = 0.331 | 836
x1 = 0.456 | 827
x1 = 0.51 | 823
x1 = 0.605 | 817
x1 = 0.745 | 807
x1 = 0.831 | 800
x1 = 0.937 | 793
x1 = 1 | 789

Cc1ccccc1 [toluene] + CC(C)=O
Settings | mass density [kg/m3]
x2 = 0 | 860
